Consider 11 compounds from PubChem BioAssay (NCI).

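Step 1: Grow cells in 96-well plates. Step 2: Expose to compound for 48 hours at 5 concentrations. Step 3: Interpolate endpoints linearly; if unreached, use highest concentration. Abbreviation: GI50, concentration required for 50% inhibition of growth. TGI: concentration producing complete growth inhibition.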

What all share (assay): NCI-60 cell line screen, 48 h
For assay [1], the system named is UACC-62 melanoma.
The subject of assay [2] is SK-MEL-28 melanoma.
The test system of assay [3] is MALME-3M melanoma.
The test system of assay [4] is DU-145 prostate.
Assay [5] has as its system SK-MEL-5 melanoma.
Assay [6] relates to 786-0 renal.
The test system of assay [7] is NCI-H522 lung.
Assay [8] relates to OVCAR-4 ovarian.
Assay [9] has as its system NCI-H23 lung.
Assay [10] has as its system LOX IMVI melanoma.

In the case of `CCCCCCCCCCCCOC1C(CNCC2OC3OC(C)(C)OC3C2NC(=O)Nc2ccc(C(=O)OCC)cc2)OC2OC(C)(C)OC21` (stereo not drawn), the GI50 in assay [1] is 3.39 µM; in assay [2], 1.97 µM; in [3], 8.99 µM; in [4], 1.89 µM; in [5] it was 2.05 µM; in assay [6] it was 3.29 µM. Also, the GI50 is 2.04 µM in [7], 1.87 µM in assay [8], 8.34 µM in [9] and 1.99 µM in assay [10]. Besides, the TGI stood at 12.2 µM in assay [1]; 4.3 µM in assay [2]; 29.1 µM in [3]; 3.73 µM in [4]; 4.13 µM in [5]; 11.5 µM in assay [6]. Moreover, the TGI in assay [7] came to 3.78 µM; in [8], 4.25 µM; in [9], 21.5 µM; in [10] it was 3.92 µM.

Turning to `ClCc1ccccc1CSc1ncnc2nc[nH]c12`, the GI50 in assay [1], in assay [2], in [3], in [4], in [5] and in assay [6] was above 60 µM throughout. Also, the GI50 in [8], in assay [9] and in assay [10] was above 60 µM throughout. Also, the TGI in assay [1], in [2], in [3], in assay [4], in assay [5] and in assay [6] was above 60 µM throughout. The TGI in assay [8], in [9] and in assay [10] was above 60 µM each time.

For `CCOC(=O)c1cnc2[nH]ccn2c1=O`, the TGI in assay [1], in assay [2], in [3], in [4], in assay [5] and in assay [6] was above 10 µM each time. The TGI in assay [8], in [9] and in assay [10] was above 10 µM each time.

As for `CCn1c(=O)c2c3cc(O)ccc3oc2c2ccc(O)cc21`, the TGI in assay [1], in assay [2], in assay [3], in assay [4], in assay [5] and in [6] was above 100 µM in each case. The results for the TGI in assay [7], in [8] and in [9] were 63.9 µM, above 100 µM and above 100 µM, respectively.

Take `CC(=O)/C(=C/n1c(=S)sc2ccccc21)C(=O)Nc1ccccc1C`: the TGI in [1], in [2], in [4], in [5], in assay [6] and in assay [8] was above 100 µM in each case. Further, the TGI in [9] and in [10] was above 100 µM in each case.

On to `O=C1c2ccccc2-c2c1c1cc3c(cc1c(=O)n2CCCCl)OCO3`, for which the GI50 was 30.5 µM in assay [1]; 19.2 µM in assay [2]; above 100 µM in [4]; 33.5 µM in assay [5]; 18.4 µM in assay [6]; 16.8 µM in assay [7]. Also, the GI50 in assay [8] is above 100 µM; in assay [9] it was 21.5 µM; in [10], 39.7 µM. Further, the TGI is above 100 µM in assay [1]; above 100 µM in assay [2]; above 100 µM in [4]; above 100 µM in assay [5]; 45.7 µM in assay [6]; above 100 µM in assay [7]. In addition, the values for the TGI in assay [8], in [9] and in [10] were above 100 µM, 87.3 µM and above 100 µM, respectively.

Consider `COC(=O)[C@@H](C)C[C@H](Cc1ccccc1)NC(=O)c1nc([C@@H](C[C@H](C(C)C)N(C)C(=O)[C@@H](NC(=O)[C@H]2CCCN2C)C(C)C)OC(C)=O)sc1C`, for which the GI50 is below 0.0025 µM in assay [1]; 0.0165 µM in assay [2]; below 0.0025 µM in assay [4]; below 0.0025 µM in assay [5]; below 0.0025 µM in assay [6]; below 0.0025 µM in assay [7]. The figures for the GI50 in [8], in [9] and in assay [10] were 0.542 µM, 0.00806 µM and 0.00837 µM, respectively. Also, the TGI in assay [1] was above 25 µM; in [2], above 25 µM; in assay [4], above 25 µM; in [5], 0.0698 µM; in [6], 24.2 µM; in [7] it was below 0.0025 µM. In addition, the TGI in assay [8], in assay [9] and in [10] was above 25 µM in each case.

Regarding `CC(=O)CC(=O)c1cc2c(=O)oc(C)cc2oc1=O`, the TGI in [1], in assay [2], in assay [3], in assay [4], in assay [5] and in [6] was above 37.5 µM throughout. In addition, the TGI in assay [7], in assay [8] and in [9] was above 37.5 µM throughout.

On to `O=C(O)Cc1c[nH]c2ccc(F)cc12`, for which the TGI in [1], in [2], in assay [4], in assay [5], in assay [6] and in assay [8] was above 100 µM in each case. For the same compound, the TGI in [9] and in [10] was above 100 µM in each case.

For `CCCNC(=O)OCc1c(COC(=O)NCCC)c(-c2ccc(Cl)c(Cl)c2)n2c1CCC2`, the TGI is 13.3 µM in assay [1]; 9.72 µM in assay [3]; above 100 µM in [4]; 19.5 µM in assay [5]; 11.4 µM in assay [6]; 4.32 µM in [7]. Also, the TGI in assay [9] was 26.5 µM; in assay [10], 15.8 µM.

For the compound `CNC(=O)c1cc(Oc2ccc3c(c2)sc2nc(-c4ccc(N)cc4)cn23)ccn1`, the GI50 in assay [1] was 0.0982 µM; in assay [2], 4.99 µM; in [4] it was 0.344 µM; in assay [5], 0.222 µM; in assay [6], 0.433 µM; in assay [7], 0.165 µM. The GI50 in assay [8] was 2.49 µM; in assay [9], 0.491 µM; in [10], 0.904 µM. The TGI was above 100 µM in assay [1]; above 100 µM in assay [2]; above 100 µM in [4]; 11.5 µM in [5]; above 100 µM in assay [6]; 0.573 µM in [7]. Further, the TGI in [8], in [9] and in [10] was above 100 µM each time.
